Laboratory results published in the NIST ThermoML archive (doi:10.1021/acs.jced.6b00516).

Test: xn = mol fraction of the nth substance listed
Conditions: for viscosity / speed of sound: 102 kPa, Liquid; for viscosity: Concentric cylinders viscometry; for speed of sound: Frequency=3 MHz, Sing-around technique in a fixed-path interferometer; for surface tension liquid-gas: 294.4 K, Sessile Drop

CCCCC1CCCCC1 [butylcyclohexane] + CCCCCCCCCCCCCCCC
Conditions	speed of sound [m/s]	viscosity [mPa·s]
293.15 K, x1 = 0.1524	1353.6	3.07
293.15 K, x1 = 0.2876	1349.9	2.76
293.15 K, x1 = 0.4091	1346.4	2.48
293.15 K, x1 = 0.5182	1343.3	2.25
293.15 K, x1 = 0.6173	1340.4	2.04
293.15 K, x1 = 0.7078	1337.4	1.86
293.15 K, x1 = 0.7902	1334.9	1.7
293.15 K, x1 = 0.8658	1332.7	1.55
293.15 K, x1 = 0.9355	1330.4	1.42
293.15 K, x1 = 1	–	1.31
303.15 K, x1 = 0.1524	1316.4	2.46
303.15 K, x1 = 0.2876	1312.6	2.23
303.15 K, x1 = 0.4091	1309	2.03
303.15 K, x1 = 0.5182	1305.6	1.85
303.15 K, x1 = 0.6173	1302.5	1.69
303.15 K, x1 = 0.7078	1299.2	1.55
303.15 K, x1 = 0.7902	1296.4	1.42
303.15 K, x1 = 0.8658	1293.8	1.31
303.15 K, x1 = 0.9355	1291.2	1.21
303.15 K, x1 = 1	–	1.12
313.15 K, x1 = 0.1524	1279.7	2.01
313.15 K, x1 = 0.2876	1275.8	1.84
313.15 K, x1 = 0.4091	1272	1.68
313.15 K, x1 = 0.5182	1268.5	1.54
313.15 K, x1 = 0.6173	1265.1	1.42
313.15 K, x1 = 0.7078	1261.5	1.31
313.15 K, x1 = 0.7902	1258.3	1.21
313.15 K, x1 = 0.8658	1255.3	1.12
313.15 K, x1 = 0.9355	1252.3	1.03
313.15 K, x1 = 1	–	0.961
323.15 K, x1 = 0.1524	1243.6	1.68
323.15 K, x1 = 0.2876	1239.6	1.54
323.15 K, x1 = 0.4091	1235.5	1.42
323.15 K, x1 = 0.5182	1231.8	1.31
323.15 K, x1 = 0.6173	1228.2	1.21
323.15 K, x1 = 0.7078	1224.3	1.12
323.15 K, x1 = 0.7902	1220.8	1.04
323.15 K, x1 = 0.8658	1217.6	0.966
323.15 K, x1 = 0.9355	1214.1	0.897
323.15 K, x1 = 1	–	0.837
333.15 K, x1 = 0.1524	1208.1	1.42
333.15 K, x1 = 0.2876	1203.9	1.31
333.15 K, x1 = 0.4091	1199.7	1.21
333.15 K, x1 = 0.5182	1195.7	1.13
333.15 K, x1 = 0.6173	1191.8	1.05
333.15 K, x1 = 0.7078	1187.6	0.972
333.15 K, x1 = 0.7902	1183.9	0.906
333.15 K, x1 = 0.8658	1180.3	0.844
333.15 K, x1 = 0.9355	1176.4	0.783
333.15 K, x1 = 1	–	0.735
343.15 K, x1 = 0.1524	–	1.22
343.15 K, x1 = 0.2876	–	1.13
343.15 K, x1 = 0.4091	–	1.05
343.15 K, x1 = 0.5182	–	0.977
343.15 K, x1 = 0.6173	–	0.912
343.15 K, x1 = 0.7078	–	0.851
343.15 K, x1 = 0.7902	–	0.797
343.15 K, x1 = 0.8658	–	0.745
343.15 K, x1 = 0.9355	–	0.694
343.15 K, x1 = 1	–	0.648
353.15 K, x1 = 0.1524	–	1.06
353.15 K, x1 = 0.2876	–	0.987
353.15 K, x1 = 0.4091	–	0.921
353.15 K, x1 = 0.5182	–	0.86
353.15 K, x1 = 0.6173	–	0.805
353.15 K, x1 = 0.7078	–	0.753
353.15 K, x1 = 0.7902	–	0.706
353.15 K, x1 = 0.8658	–	0.662
353.15 K, x1 = 0.9355	–	0.619
353.15 K, x1 = 1	–	0.576

Conditions	surface tension liquid-gas [mN/m]
x1 = 0.1524	26.9
x1 = 0.2876	26.9
x1 = 0.4091	26.9
x1 = 0.5182	26.8
x1 = 0.6173	26.8
x1 = 0.7078	26.8
x1 = 0.7902	26.7
x1 = 0.8658	26.7
x1 = 0.9355	26.7

CCCCC1CCCCC1 [butylcyclohexane] + Cc1ccccc1
Conditions	speed of sound [m/s]	viscosity [mPa·s]
293.15 K, x1 = 0.0681	1321.1	0.622
293.15 K, x1 = 0.1544	1316.7	0.649
293.15 K, x1 = 0.2197	1314.5	0.678
293.15 K, x1 = 0.3045	1313	0.721
293.15 K, x1 = 0.3964	1312.8	0.774
293.15 K, x1 = 0.4964	1313.5	0.838
293.15 K, x1 = 0.6046	1315.6	0.916
293.15 K, x1 = 0.7244	1318.9	1.02
293.15 K, x1 = 0.8548	1323.3	1.16
293.15 K, x1 = 1	–	1.31
303.15 K, x1 = 0.0681	1278.6	0.552
303.15 K, x1 = 0.1544	1274.6	0.578
303.15 K, x1 = 0.2197	1272.7	0.603
303.15 K, x1 = 0.3045	1271.6	0.638
303.15 K, x1 = 0.3964	1271.6	0.683
303.15 K, x1 = 0.4964	1272.7	0.735
303.15 K, x1 = 0.6046	1275	0.8
303.15 K, x1 = 0.7244	1278.6	0.885
303.15 K, x1 = 0.8548	1283.3	0.991
303.15 K, x1 = 1	–	1.12
313.15 K, x1 = 0.0681	1236.5	0.495
313.15 K, x1 = 0.1544	1232.9	0.518
313.15 K, x1 = 0.2197	1231.4	0.538
313.15 K, x1 = 0.3045	1230.6	0.568
313.15 K, x1 = 0.3964	1230.9	0.607
313.15 K, x1 = 0.4964	1232.3	0.651
313.15 K, x1 = 0.6046	1234.9	0.704
313.15 K, x1 = 0.7244	1238.8	0.775
313.15 K, x1 = 0.8548	1243.7	0.862
313.15 K, x1 = 1	–	0.961
323.15 K, x1 = 0.0681	1194.9	0.446
323.15 K, x1 = 0.1544	1191.8	0.466
323.15 K, x1 = 0.2197	1190.6	0.484
323.15 K, x1 = 0.3045	1190.1	0.51
323.15 K, x1 = 0.3964	1190.7	0.541
323.15 K, x1 = 0.4964	1192.5	0.58
323.15 K, x1 = 0.6046	1195.4	0.625
323.15 K, x1 = 0.7244	1199.6	0.683
323.15 K, x1 = 0.8548	1204.8	0.754
323.15 K, x1 = 1	–	0.837
333.15 K, x1 = 0.0681	1153.9	0.405
333.15 K, x1 = 0.1544	1151.2	0.422
333.15 K, x1 = 0.2197	1150.3	0.437
333.15 K, x1 = 0.3045	1150.2	0.46
333.15 K, x1 = 0.3964	1151.1	0.486
333.15 K, x1 = 0.4964	1153.2	0.519
333.15 K, x1 = 0.6046	1156.5	0.558
333.15 K, x1 = 0.7244	1161	0.604
333.15 K, x1 = 0.8548	1166.5	0.663
333.15 K, x1 = 1	–	0.735
343.15 K, x1 = 0.0681	–	0.37
343.15 K, x1 = 0.1544	–	0.379
343.15 K, x1 = 0.2197	–	0.397
343.15 K, x1 = 0.3045	–	0.418
343.15 K, x1 = 0.3964	–	0.438
343.15 K, x1 = 0.4964	–	0.469
343.15 K, x1 = 0.6046	–	0.502
343.15 K, x1 = 0.7244	–	0.535
343.15 K, x1 = 0.8548	–	0.586
343.15 K, x1 = 1	–	0.648
353.15 K, x1 = 0.0681	–	0.325
353.15 K, x1 = 0.1544	–	0.345
353.15 K, x1 = 0.2197	–	0.356
353.15 K, x1 = 0.3045	–	0.373
353.15 K, x1 = 0.3964	–	0.395
353.15 K, x1 = 0.4964	–	0.426
353.15 K, x1 = 0.6046	–	0.451
353.15 K, x1 = 0.7244	–	0.49
353.15 K, x1 = 0.8548	–	0.532
353.15 K, x1 = 1	–	0.576

Conditions	surface tension liquid-gas [mN/m]
x1 = 0.0681	28.1
x1 = 0.1544	27.7
x1 = 0.2197	27.5
x1 = 0.3045	27.3
x1 = 0.3964	27.2
x1 = 0.4964	27
x1 = 0.6046	26.9
x1 = 0.7244	26.7
